Data reported in PubChem BioAssay (NCI).
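Compound exposure: 48 hours, 5 concentrations, 96-well plates. Abbreviation: GI50, concentration required for 50% inhibition of growth. TGI denotes the concentration required for complete inhibition of growth.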 Where a SMILES comes first, the peptide text is derived from it. The star is where a group is joined. Trt = c1ccc(C(c2ccccc2)(c2ccccc2)*)cc1; Cbz = O=C(OCc1ccccc1)*

Legend:
Test in all cases: NCI tumour cell line growth inhibition, 48 h
NCI-H460 lung = tested on: NCI-H460 lung
CAKI-1 renal = tested on: CAKI-1 renal
XF 498 CNS = tested on: XF 498 CNS
RXF 393 renal = tested on: RXF 393 renal
M19-MEL melanoma = tested on: M19-MEL melanoma
OVCAR-3 ovarian = tested on: OVCAR-3 ovarian
K-562 leukemia = tested on: K-562 leukemia
OVCAR-5 ovarian = tested on: OVCAR-5 ovarian
BT-549 breast = tested on: BT-549 breast
MDA-MB-231 breast = tested on: MDA-MB-231 breast

Structure (SMILES)	TGI (NCI-H460 lung) [µM]	TGI (CAKI-1 renal) [µM]	TGI (XF 498 CNS) [µM]	TGI (RXF 393 renal) [µM]	TGI (M19-MEL melanoma) [µM]	TGI (OVCAR-3 ovarian) [µM]	TGI (K-562 leukemia) [µM]	TGI (OVCAR-5 ovarian) [µM]	GI50 (NCI-H460 lung) [µM]	GI50 (CAKI-1 renal) [µM]	GI50 (XF 498 CNS) [µM]	GI50 (RXF 393 renal) [µM]	GI50 (OVCAR-3 ovarian) [µM]	GI50 (K-562 leukemia) [µM]	TGI (BT-549 breast) [µM]	GI50 (BT-549 breast) [µM]	GI50 (MDA-MB-231 breast) [µM]	TGI (MDA-MB-231 breast) [µM]	GI50 (OVCAR-5 ovarian) [µM]
COC(=O)C(C(=O)C(N)=O)c1csc(-n2nc(-c3ccccc3)cc2-c2ccccc2)n1 (stereo not given)	> 31.6	15.5	> 31.6	> 31.6	> 31.6	> 100	> 31.6	> 100	–	–	–	–	–	–	–	–	–	–	–
[CH3][Sn]1([CH3])[O]CC(COc2cc(Cl)c(Cl)cc2Cl)[O]1 (stereo not given)	> 100	89.3	> 100	> 100	–	> 100	> 100	–	> 100	28.1	68	29.1	42.8	> 100	–	–	–	–	–
N#C/C(=C\c1ccc2[nH]ccc2c1)C(=O)c1ccc(O)c(O)c1	> 100	> 100	–	> 100	> 100	79.3	> 100	> 100	–	–	–	–	–	–	> 100	–	–	–	–
CC(=O)NC(CCCN(Cc1ccccc1)C(=O)N(C)N=O)C(=O)NCc1ccccc1 (stereo not given)	> 100	> 100	> 100	> 100	> 100	> 100	> 100	> 100	–	–	–	–	–	–	–	–	–	–	–
Cc1ccc2nc(NC(=O)C(=O)CC(=O)c3cccc4ccccc34)sc2c1	> 100	78	> 100	–	> 100	49.6	> 100	> 100	–	–	–	–	–	–	–	–	–	–	–
Cc1noc(/N=C2\C=C(Nc3onc(C)c3C)C(=O)c3ccccc32)c1C	> 100	> 100	> 100	> 100	17.1	83	> 100	> 100	–	–	–	–	–	–	–	–	–	–	–
CC(=O)OC(=O)O/C=C\CCl	> 100	> 100	–	> 100	> 100	> 100	> 100	–	–	–	–	–	–	–	–	–	–	–	–
COC(=O)C(=O)C(C(=O)C(=O)Nc1cc(Cl)c(Cl)cc1Cl)c1nc2ccc([N+](=O)[O-])cc2[nH]c1=O (stereo not given)	–	> 100	> 100	> 100	> 100	–	> 100	> 100	–	–	–	–	–	–	–	–	–	–	–
CCc1cc(Cc2ccc(C)c(NC(=O)C(=O)C3C(=O)NC(=O)NC3=O)c2CC)cc(C)c1NC(=O)C(=O)C1C(=O)NC(=O)NC1=O	> 100	> 100	–	> 100	> 100	> 100	> 100	> 100	–	–	–	–	–	–	–	–	–	–	–
CC1=CC(=O)NP(=O)(C23CC4CC(CC(C4)C2)C3)N1 (stereo not given)	> 100	> 100	> 100	–	> 100	> 100	> 100	> 100	–	–	–	–	–	–	–	–	–	–	–
O=CCCCC(Sc1ccccc1)Sc1ccccc1	–	> 100	42.6	–	39.8	68	76.6	–	–	–	–	–	–	–	–	–	–	–	–
COc1ccc2c(c1)c1c3n2CCNN=C3CCC1	> 100	> 100	> 100	–	> 100	> 100	> 100	> 100	–	–	–	–	–	–	–	–	–	–	–
CCCCCCCCCCCCCCCCCC(=O)NCC(COP(=O)(O)O)OCC (stereo not given)	–	> 100	> 100	–	> 100	> 100	> 100	–	–	–	–	–	–	–	–	–	–	–	–
COc1ccc(C)cc1C1CCC(=O)O1 (stereo not given)	> 100	–	99.2	> 100	> 100	> 100	> 100	> 100	–	–	–	–	–	–	–	–	–	–	–
C/C(CC(=O)Nc1cccc([N+](=O)[O-])c1)=N\NC(=O)CC#N	–	–	> 100	> 100	–	> 100	> 100	> 100	–	–	–	–	–	–	–	–	–	–	–
Cc1c(Cl)cccc1NC(=O)c1sc2nc3c(cc2c1N)CCCC3	> 100	> 100	–	> 89.6	–	> 100	> 100	> 100	0.473	1.01	–	0.514	0.378	0.391	> 100	0.591	> 100	> 100	> 100
O=S(=O)(O)SCCNCCCCCC1CCCCC1	9.16	35.4	–	38	–	11.2	> 35.8	23.8	–	–	–	–	–	–	31.4	–	–	30	–
COC(=O)C(CSC(c1ccccc1)(c1ccccc1)c1ccccc1)NC(=O)C(CC(N)=O)NC(=O)OCc1ccccc1 (stereo not drawn) (Cbz-Asn-Cys(Trt)-OMe; configuration not given here)	15.8	14.3	–	13.5	–	4.67	11.4	20.2	4.5	3.51	–	3.17	1.78	3.16	35.7	14.8	2.93	10.9	7.23
O=C(O)CCc1nc(-c2ccccc2-n2cccc2)no1	> 100	> 100	–	> 100	–	86.3	> 100	> 100	–	–	–	–	–	–	> 100	–	–	> 100	–
CC(=O)c1c2c(cc3c1CC1(C3)Cc3cc4c(c(C(=O)O)c3C1)CCC4)CCC2 (stereo not given)	> 100	> 100	> 100	> 100	> 100	47.2	97.8	> 100	–	–	–	–	–	–	–	–	–	–	–
O=C1CCC(=O)c2sccc2N1	> 100	> 100	> 100	> 100	> 100	> 100	> 100	> 100	–	–	–	–	–	–	–	–	–	–	–
O=C(/C=C/C1C(=O)NC(=O)NC1=O)CC(=O)C(=O)Nc1cc(Cl)c(Cl)cc1Cl	> 100	> 100	> 100	> 100	> 100	> 100	> 100	> 100	–	–	–	–	–	–	–	–	–	–	–
O=C1/C(=C\c2ccccc2)C2OCC=C3CN4CCC56c7ccccc7N1C5C2C3CC46 (stereo not given)	> 100	32.1	–	> 100	–	> 100	> 100	> 100	6.4	2.18	–	35.8	36.5	3.33	> 100	34.2	6.92	> 100	> 100
NC(=O)c1ccc(N(C(N)=O)c2c(F)cccc2F)nc1-c1ccc(F)cc1F	> 100	> 100	–	> 100	–	> 100	> 100	> 100	> 100	> 100	–	> 100	> 100	> 100	> 100	> 100	> 100	> 100	> 100
